# From PMC9255384 (Journal of medicinal chemistry, 2021)
# System: Caco-2
# Test: Monolayer Caco-2 permeability experiment
# Format: in vitro ADME
row,SMILES,cellular permeability (Caco-2)
1,"CSc1nc(-c2cccc(NC(=O)c3c(F)ccc(O)c3CN3C(=O)c4ccccc4C3=O)c2)c(-c2ccnc(NC(C)=O)c2)[nH]1 [Compound 2c, N-(3-(5-(2-acetamidopyridin-4-yl)-2-(methylthio)-1H-imidazol-4-yl)phenyl)-2-((1,3-dioxoisoindolin-2-yl)methyl)-6-fluoro-3-hydroxybenzamide]",limited cellular permeability
2,"C=CC(=O)Nc1ccc(OC)c(Nc2cc(-c3[nH]c(SC)nc3-c3cccc(NC(=O)c4c(F)ccc(O)c4CN4C(=O)c5ccccc5C4=O)c3)ccn2)c1 [Compound 1, N-(3-(5-(2-((5-acrylamido-2-methoxyphenyl)amino)pyridin-4-yl)-2-(methylthio)-1H-imidazol-4-yl)phenyl)-2-((1,3-dioxoisoindolin-2-yl)methyl)-6-fluoro-3-hydroxybenzamide]",limited cellular permeability
